Measured values as given in patent US11584714B2 (priority 2018, dated 2023).
Structures can show the parent of a compound that is named as a salt. Where two headings read alike, the source gives them in different places.

Columns and labels:
Format in all cases: biochemical
MASP-2 (CCP1-CCP2-SP) = MASP-2 (CCP1-CCP2-SP) (Homo sapiens (Human), UniProt O00187); assay: biochemical; settings: for Ki: read-out: MASP-2 Ki; for MASP-2 vs. thrombin selectivity: selectivity for MASP-2 inhibition versus thrombin
Chain of MASP-2 (CCP1-CCP2-SP) (O00187 445-686): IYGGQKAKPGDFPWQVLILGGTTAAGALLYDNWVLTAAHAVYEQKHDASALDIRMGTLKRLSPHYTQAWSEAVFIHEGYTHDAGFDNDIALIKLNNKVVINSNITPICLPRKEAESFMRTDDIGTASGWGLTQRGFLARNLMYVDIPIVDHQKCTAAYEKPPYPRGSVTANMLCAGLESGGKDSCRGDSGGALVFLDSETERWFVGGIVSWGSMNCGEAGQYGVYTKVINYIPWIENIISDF

Lectin Pathway = assay: Lectin pathway activation assay in human serum (mannan-coated ELISA, C3c detection); settings: 1% human serum
human α-thrombin = human α-thrombin (Homo sapiens (Human), UniProt P00734); assay: Enzymatic assay for thrombin (Boc-VPR-AMC substrate)
mMASP-2 = mMASP-2 (Mus musculus (Mouse), UniProt Q91WP0); assay: Enzymatic inhibition of mMASP-2
Chain of mMASP-2 (Q91WP0 20-685): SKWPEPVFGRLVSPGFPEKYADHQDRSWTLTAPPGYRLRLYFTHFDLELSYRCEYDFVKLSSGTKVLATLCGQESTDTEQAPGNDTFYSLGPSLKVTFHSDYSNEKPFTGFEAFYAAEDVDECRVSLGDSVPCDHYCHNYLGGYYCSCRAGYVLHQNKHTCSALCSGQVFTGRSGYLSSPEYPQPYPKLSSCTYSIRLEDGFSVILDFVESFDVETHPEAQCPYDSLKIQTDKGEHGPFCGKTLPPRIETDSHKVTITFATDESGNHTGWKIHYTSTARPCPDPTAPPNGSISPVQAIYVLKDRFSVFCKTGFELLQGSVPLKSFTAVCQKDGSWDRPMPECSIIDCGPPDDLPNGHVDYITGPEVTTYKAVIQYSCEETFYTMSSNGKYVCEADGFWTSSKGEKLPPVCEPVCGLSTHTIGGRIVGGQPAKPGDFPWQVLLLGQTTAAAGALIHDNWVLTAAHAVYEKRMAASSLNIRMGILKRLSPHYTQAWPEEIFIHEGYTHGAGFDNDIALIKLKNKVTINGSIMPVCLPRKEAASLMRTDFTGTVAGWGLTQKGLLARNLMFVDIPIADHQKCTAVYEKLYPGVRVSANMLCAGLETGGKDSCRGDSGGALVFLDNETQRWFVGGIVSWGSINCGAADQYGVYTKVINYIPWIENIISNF

Compound	Ki (MASP-2 (CCP1-CCP2-SP)) [nM]	MASP-2 vs. thrombin selectivity (MASP-2 (CCP1-CCP2-SP))	IC50 (Lectin Pathway) [nM]	Ki (human α-thrombin; Thrombin Ki (μM)) [µM]	Ki (mMASP-2; read-out: mMASP-2 Ki) [nM]	Ki (human α-thrombin; read-out: Thrombin Ki) [µM]	Ki (mMASP-2) [nM]
C[C@H](NC(=O)[C@@H](CCc1ccccc1)NCCc1cccc(OC(F)(F)F)c1)C(=O)NCc1ccc(C(=N)N)cc1 [compound 1352, (R)—N—((S)-1-((4-Carbamimidoylbenzyl)amino)-1-oxopropan-2-yl)-4-phenyl-2-((3-(trifluoromethoxy)phenethyl)amino)butanamide Di-trifluoroacetate salt]	< 500	*** (≥25 to <100-fold)	50 to 500	0.5 to 2.5	< 500		
Cc1nc(N)ccc1CNC(=O)[C@H](C)NC(=O)[C@H]1C[C@H](Cc2ccc(Cl)c(Cl)c2)CN1 [compound 1422, (2R,4S)—N—((S)-1-(((6-Amino-2-methylpyridin-3-yl)methyl)amino)-1-oxopropan-2-yl)-4-(3,4-dichlorobenzyl)pyrrolidine-2-carboxamide Dihydrochloride]	< 500	**** (≥100-fold)	500 to 5000	2.5 to 10	< 500		
C[C@H](NC(=O)[C@H]1C[C@H](Cc2ccccc2)CN1)C(=O)NCc1cc(Cl)ccc1-n1cnnn1 [compound 1371, (2R,4S)-4-Benzyl-N-((S)-1-((5-chloro-2-(1H-tetrazol-1-yl)benzyl)amino)-1-oxopropan-2-yl)pyrrolidine-2-carboxamide Hydrochloride]	< 500	−− (<1.0-fold)	50 to 500		500 to 2500	< 0.5	
Cc1nc(N)ccc1CNC(=O)[C@H](C)NC(=O)[C@H]1C[C@H](Cc2ccc(Cl)cc2Cl)CN1 [compound 1443, (2R,4S)—N—((S)-1-(((6-Amino-2-methylpyridin-3-yl)methyl)amino)-1-oxopropan-2-yl)-4-(2,4-dichlorobenzyl)pyrrolidine-2-carboxamide Dihydrochloride]	< 500	*** (≥25 to <100-fold)	500 to 5000	0.5 to 2.5	< 500		
Cc1nc(N)ccc1CNC(=O)[C@H](C)NC(=O)[C@H]1C[C@@H](c2ccccc2)CCN1 [compound 1253, (2R,4S)—N—((S)-1-(((6-Amino-2-methylpyridin-3-yl)methyl)amino)-1-oxopropan-2-yl)-4-phenylpiperidine-2-carboxamide]	< 500		50 to 500			> 25	500 to 2500
Cc1nc(N)ccc1CNC(=O)[C@H](C)NC(=O)[C@H]1Cc2c(sc3ccccc23)CN1 [compound 1400, (R)—N—((S)-1-(((6-Amino-2-methylpyridin-3-yl)methyl)amino)-1-oxopropan-2-yl)-1,2,3,4-tetrahydrobenzo[4,5]thieno[2,3-c]pyridine-3-carboxamide Hydrochloride]	< 500		500 to 5000		2500 to 10000	> 25	
Cc1nc(N)ccc1CNC(=O)[C@H](C)NC(=O)[C@H]1C[C@H](Oc2ccc(Br)cc2)CN1 [compound 1445, (2R,4S)—N—((S)-1-(((6-Amino-2-methylpyridin-3-yl)methyl)amino)-1-oxopropan-2-yl)-4-(4-bromophenoxy)pyrrolidine-2-carboxamide Dihydrochloride]	< 500	**** (≥100-fold)	5000 to 50000		500 to 2500	> 25	
Cc1nc(N)ccc1CNC(=O)[C@H](C)NC(=O)[C@H]1C[C@H](Cc2ccc(C#N)c3ccccc23)CN1 [compound 1431, (2R,4S)—N—((S)-1-(((6-Amino-2-methylpyridin-3-yl)methyl)amino)-1-oxopropan-2-yl)-4-((4-cyanonaphthalen-1-yl)methyl)pyrrolidine-2-carboxamide Dihydrochloride]	< 500	**** (≥100-fold)	50 to 500	10 to 25	< 500		
